# Measurements taken from US8680147B2, “Compositions” (DSM IP Assets B.V., priority 2006, dated 2014).
# Legend:
# Format in all cases: cell-based
# Human collagen II = test: Gene expression in human chondrocyte cells (SW1353), quantitative real-time PCR
# Experimental: (§1) The cells were treated with IL-1β, which is one of the natural mediators that induce cartilage breakdown and is detected in substantial amounts in osteoarthritic cartilage tissues and cells derived thereof. Treatment of cells with IL-1β triggers the expression of genes that are involved in catabolic events, such as MMPs. Also, treatment of the cells with IL-1β reduces the collagen expression levels (compared to untreated cells)
# (§2) Chondrocytes (SW1353; purchased from the […] [ATCC]) were grown in cell culture medium according to the instructions from ATCC. For experimental treatments, cells were seeded into 6-well plates and cultured for two days until they reached confluence. Total cellular RNA was extracted from cultured cells and reverse-transcribed as described by Richard et al. Mol. Nutr. Food Res. 49, 431-442, 2005. Expression levels of distinct genes were determined by quantitative real-time PCR as described in Richard et al. Mol. Nutr. Food Res. 49, 431-442, 2005.
# human collagen 1 = test: as above
# Experimental: as §1, §2
# Aggrecan = test: as above
# Experimental: as §1, §2
# Human MMP-3 = test: as above
# Experimental: as §1, §2
# Human MMP-1 = test: as above
# Experimental: as §1, §2
# Human MMP-13 = test: as above
# Experimental: as §1, §2
# β-defensin (defensin-β4) = test: Gene expression in cytokine-stimulated keratinocytes, quantitative real time PCR; conditions: for β-defensin gene expression (in % of stimulated cells): keratinocytes, cytokine mix 24 hrs
# Experimental: (§3) Keratinocytes were cultured in standard medium (SFM, invitrogen #1 7005075) until they reached confluence. Culture medium was then changed to assay medium (SFM without epidermal growth factor and pituary extract) and pre-incubated with the test compound for 2 hrs. In order to stimulate the cells, a cytokine mix (see Boniface et al. J. Immunol. 178, 4615-4622, 2007) was added and the cells were cultured for 24 hrs. At the end of the experiment, cells were washed; total RNA was extracted using Trizol reagents (Sigma T9424). The expression levels of specific genes (cytokeratin 10, β-defensin (defensin-β4) and psoriasin (or S100 calcium-binding protein A7) was performed by quantitative real time PCR, using the procedure described in other examples.
# [1] = test system: psoriasin (S100 calcium-binding protein A7); test: as above; conditions: for Psoriasin gene expression (in % of stimulated cells): keratinocytes, cytokine mix 24 hrs
# Experimental: as §3
# [2] = cytokine-stimulated keratinocytes
smiles,measurement,setting,value
"COc1c(C(C)C)cc2c(c1O)[C@@]1(C(=O)O)CCCC(C)(C)[C@@H]1CC2 [Carnosic acid-12-methyl ether (I), (4aR,10aS)-carnosic acid 12-methyl ether]",Effect on expression of human collagen 11 (in words),Human collagen II,stimulated the expression
same,Effect on expression of human collagen 1 (in words),human collagen 1,stimulated the expression
same,Effect on expression of aggrecan (in words),Aggrecan,stimulated the expression
same,Effect on expression of MMP-3 (in words),Human MMP-3,drastically reduced the expression
same,Effect on expression of MMP-1 (in words),Human MMP-1,drastically reduced the expression
same,Effect on expression of MMP-13 (in words),Human MMP-13,drastically reduced the expression
same,β-defensin gene expression (in % of stimulated cells),β-defensin (defensin-β4); 0.1 μmol/L,49 % of stimulated cells
same,β-defensin gene expression (in % of stimulated cells),β-defensin (defensin-β4); 1.0 μmol/L,47 % of stimulated cells
same,β-defensin gene expression (in % of stimulated cells),β-defensin (defensin-β4); 5.0 μmol/L,28 % of stimulated cells
same,Effect on β-defensin expression (in words),β-defensin (defensin-β4); [2],dose-dependently reduced the expression
same,Psoriasin gene expression (in % of stimulated cells),[1]; 0.1 μmol/L,46 % of stimulated cells
same,Psoriasin gene expression (in % of stimulated cells),[1]; 1.0 μmol/L,58 % of stimulated cells
same,Psoriasin gene expression (in % of stimulated cells),[1]; 5.0 μmol/L,62 % of stimulated cells
same,Effect on psoriasin expression (in words),[1]; [2],dose-dependently reduced the expression
